According to paper PMC3392958, “Assay Format as a Critical Success Factor for Identification of Novel Inhibitor Chemotypes of Tissue-Nonspecific Alkaline Phosphatase from High-Throughput Screening” (Molecules, 2010):
Where two headings read alike, the source gives them in different places.

Tests used:
[1] = target: T1, IAP (Homo sapiens, UniProt P09923); assay: IAP luminescent assay (CDP-star); assay type: biochemical
T1 construct: made in house; host or cells: COS-1 cells, transient expression; dialyzed serum-free conditioned medium
T1 sequence (P09923 20-503 limits assumed): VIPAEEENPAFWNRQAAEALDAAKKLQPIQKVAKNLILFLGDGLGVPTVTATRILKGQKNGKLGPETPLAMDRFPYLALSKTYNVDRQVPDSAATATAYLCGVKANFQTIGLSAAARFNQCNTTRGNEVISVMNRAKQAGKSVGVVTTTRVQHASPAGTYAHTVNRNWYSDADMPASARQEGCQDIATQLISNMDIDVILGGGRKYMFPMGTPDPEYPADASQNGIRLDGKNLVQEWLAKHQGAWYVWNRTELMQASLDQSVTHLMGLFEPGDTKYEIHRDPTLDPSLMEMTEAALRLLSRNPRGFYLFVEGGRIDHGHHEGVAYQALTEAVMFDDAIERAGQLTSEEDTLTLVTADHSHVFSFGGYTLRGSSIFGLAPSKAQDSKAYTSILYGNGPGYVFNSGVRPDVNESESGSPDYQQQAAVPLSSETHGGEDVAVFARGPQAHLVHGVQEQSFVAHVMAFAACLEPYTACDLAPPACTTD
Protocol: (§1) Selectivity of Primary Actives Against other Phosphatases: To assess the selectivity of compounds across the alkaline phosphatase family, luminescent assays were developed for human PLAP and human IAP with the same CDP-Star reagent.
(§2) Development of the novel luminescent TNAP assay using CDP-star substrate and detailed protocol of its application for HTS is described in more detail elsewhere. […] Briefly, the assay was 50 μM CDP-star substrate in assay buffer containing 100 mM DEA-HCl (pH 9.8), 1 mM MgCl2, and 20 μM ZnCl2. The luminescence signal was measured after a 30-min incubation at room temperature on an EnVision plate reader (PerkinElmer, Waltham, MA). […] Detailed protocols can be found in the respective AIDs, however, the final buffer conditions were 100 mM DEA, pH 9.8, 1.0 mM MgCl2, 0.02 mM ZnCl2 for both PLAP and IAP.

[2] = target: T2, human PLAP (Homo sapiens, UniProt P05187); assay: PLAP luminescent assay (CDP-star); assay type: biochemical
T2 construct: made in house; host or cells: COS-1 cells, transient expression; dialyzed serum-free conditioned medium
T2 sequence (P05187 23-506 limits assumed): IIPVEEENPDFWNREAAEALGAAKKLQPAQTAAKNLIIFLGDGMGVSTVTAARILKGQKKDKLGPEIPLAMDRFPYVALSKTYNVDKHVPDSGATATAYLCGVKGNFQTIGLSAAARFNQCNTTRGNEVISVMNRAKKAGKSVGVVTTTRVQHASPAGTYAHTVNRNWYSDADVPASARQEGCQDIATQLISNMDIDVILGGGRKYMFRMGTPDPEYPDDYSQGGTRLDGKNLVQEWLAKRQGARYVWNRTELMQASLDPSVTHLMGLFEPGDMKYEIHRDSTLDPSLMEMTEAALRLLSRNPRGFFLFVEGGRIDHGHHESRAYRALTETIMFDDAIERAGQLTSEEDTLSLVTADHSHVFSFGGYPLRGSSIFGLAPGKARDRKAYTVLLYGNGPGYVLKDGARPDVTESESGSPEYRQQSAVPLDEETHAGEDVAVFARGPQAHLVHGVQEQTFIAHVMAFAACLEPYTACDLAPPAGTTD
Protocol: as §1, §2

[3] = target: T3, TNAP (Homo sapiens, UniProt P05186); assay: TNAP luminescent assay (CDP-star substrate, 100 mM DEA); assay type: biochemical; details: for improvement in TNAP potency over parent compound: MLS-0091995 vs CID-646303, MLS-0111547 vs MLS-0004120
T3 construct: made in house; host or cells: COS-1 cells, transient expression; dialyzed serum-free conditioned medium
T3 sequence (P05186 18-501 limits assumed): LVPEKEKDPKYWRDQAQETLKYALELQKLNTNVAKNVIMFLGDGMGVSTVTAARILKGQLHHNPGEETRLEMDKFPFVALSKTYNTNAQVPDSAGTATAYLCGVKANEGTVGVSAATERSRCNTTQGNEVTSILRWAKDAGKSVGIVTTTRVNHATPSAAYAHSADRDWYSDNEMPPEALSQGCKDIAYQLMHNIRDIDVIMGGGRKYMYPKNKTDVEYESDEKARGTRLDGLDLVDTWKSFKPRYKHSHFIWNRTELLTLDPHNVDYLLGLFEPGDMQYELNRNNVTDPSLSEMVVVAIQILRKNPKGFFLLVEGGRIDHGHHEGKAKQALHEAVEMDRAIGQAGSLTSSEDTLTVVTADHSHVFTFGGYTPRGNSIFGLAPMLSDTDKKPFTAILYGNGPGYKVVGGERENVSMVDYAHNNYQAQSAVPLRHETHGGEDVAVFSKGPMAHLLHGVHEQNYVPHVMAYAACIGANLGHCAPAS
Protocol: as §2

[4] = target: T3, TNAP; parameters: method as in PMID 19556612; details: three DEA concentrations tested; cited from earlier work
[5] = target: T3, TNAP; assay: TNAP colorimetric malachite green phosphate detection (MG) assay; assay type: biochemical; details: fresh solid samples from vendors; read-out: IC50 SAR-MG
Protocol: (§3) The colorimetric TNAP assay was performed as previously described with slight modifications.

[6] = target: T3, TNAP; assay: TNAP colorimetric assay (pNPP substrate, OD405, 1M DEA); assay type: biochemical
Protocol: as §3

[7] = catechol series, read-out: IAP IC50
[8] = catechol series, read-out: PLAP IC50
[9] = TNAP, read-out: IC50 (Figure 6, pyrazole series optimization)
[10] = luminescence-based assay, 0.1M DEA, read-out: TNAP IC50
[11] = compounds from MLSMR in liquid form, read-out: IC50 HTS-Lumi
[12] = fresh solid samples from vendors, read-out: IC50 SAR-Lumi
[13] = read-out: Selectivity Panel IC50 TNAP
[14] = read-out: Selectivity Panel IC50 IAP
[15] = compounds from MLSMR in liquid form, read-out: IC50 HTS-Color
[16] = fresh solid samples from vendors, read-out: IC50 SAR-Color
[17] = read-out: Selectivity Panel IC50 PLAP
[18] = phtalimide triazole series, read-out: IC50 TNAP- Lumi
[19] = phtalimide triazole series, read-out: IC50 IAP-Lumi
[20] = bisarylsulfonamide series, NA = inactive (up to 100 µM), read-out: TNAP-Lumi IC50
[21] = optimized pyrazole series, read-out: TNAP Lumi IC50

Compound: O=C(Cn1ccnc1)c1ccc(O)c(O)c1 [Compound 1]
- IC50 [1, 7]: 30200 nM
- IC50 [2, 8]: 2.1 µM

Compound: O=C(CNc1nc2ccccc2[nH]1)c1ccc(O)c(O)c1 [Compound 2]
- IC50 [2, 8]: 9.1 µM

Compound: O=C(O)c1[nH]nc2c1COc1ccccc1-2 [MLS-0004120]
- IC50 [3, 9]: 1300 nM
- IC50 [3, 10]: 1330 nM

Compound: O=C(O)c1cc(-c2ccccc2Cl)[nH]n1 [MLS-0005718]
- IC50 [3, 9]: 1000 nM
- IC50 [3, 11]: 980 nM
- IC50 [3, 12]: 740 nM
- IC50 [3, 13]: 740 nM
- IC50 [1, 14]: 44000 nM
- mechanism of TNAP inhibition with respect to DEA [4]: competitive
- IC50 [5]: > 100 µM
- IC50 [6, 15]: > 100 µM
- IC50 [6, 16]: > 100 µM
- IC50 [2, 17]: > 100 µM

Compound: COc1ccc(C)cc1S(=O)(=O)Nc1cccnc1 [MLS-0010847]
- IC50 [3, 11]: 1800 nM
- IC50 [3, 12]: 930 nM
- IC50 [3, 13]: 930 nM
- IC50 [1, 14]: > 100000 nM
- IC50 [5]: 0.95 µM
- IC50 [6, 15]: 0.71 µM
- IC50 [6, 16]: 0.83 µM
- IC50 [2, 17]: > 100 µM

Compound: Oc1cc(-c2cccc3ccccc23)[nH]n1 [MLS-0039961]
- IC50 [3, 11]: 3200 nM
- IC50 [3, 12]: 4600 nM
- IC50 [1, 14]: > 100000 nM
- mechanism of TNAP inhibition with respect to DEA [4]: noncompetitive
- IC50 [5]: 74 µM
- IC50 [6, 15]: 21 µM
- IC50 [6, 16]: 46 µM
- IC50 [2, 17]: > 100 µM

Compound: O=C1C2CC=CCC2C(=O)N1c1n[nH]c(Cc2ccccc2)n1 (centres unmarked) [MLS-0067142]
- IC50 [3, 11]: 240 nM
- IC50 [3, 18]: 210 nM
- IC50 [3, 13]: 190 nM
- IC50 [1, 19]: 540 nM
- IC50 [1, 14]: 540 nM
- mechanism of TNAP inhibition with respect to DEA [4]: competitive
- IC50 [5]: > 100 µM
- IC50 [6, 15]: > 100 µM
- IC50 [6, 16]: > 100 µM
- IC50 [2, 17]: 3.1 µM

Compound: COc1ccc(OC)c(S(=O)(=O)Nc2cccnc2)c1 [MLS-0068486]
- reduction in TNAP potency compared with the lead structure CID-2931238 [3]: roughly 4 fold
- IC50 [3, 20]: 920 nM

Compound: COc1ccc(S(=O)(=O)Nc2cnc3ccccc3c2)cc1OC [MLS-0090842]
- activity against TNAP in vitro ([3]; luminescence-based assay): inactive

Compound: COc1cccc(S(=O)(=O)Nc2cnc3ccccc3c2)c1 [MLS-0090844]
- reduction in TNAP potency compared with the lead structure CID-2931238 [3]: 100 fold
- IC50 [3, 20]: 25700 nM

Compound: O=S(=O)(Nc1cnc2ccccc2c1)c1ccccc1 [MLS-0090845]
- IC50 [3, 10]: > 100000 nM

Compound: O=C1C2CC=CCC2C(=O)N1c1nnc(-c2ccco2)[nH]1 (centres unmarked) [MLS-0091966]
- IC50 [3, 18]: 4680 nM
- selectivity for IAP over TNAP [1]: 10 fold
- IC50 [1, 19]: 410 nM

Compound: O=C1C2CC=CCC2C(=O)N1c1nnc(-c2cccnc2)[nH]1 (centres unmarked) [MLS-0091977]
- IC50 [3, 18]: 10500 nM
- selectivity for IAP over TNAP [1]: 6 fold

Compound: O=C1c2ccccc2C(=O)N1c1nc(Cc2ccccc2)n[nH]1 [MLS-0091978]
- IC50 [3, 18]: 670 nM

Compound: O=C1C2CC=CCC2C(=O)N1c1nnc[nH]1 (centres unmarked) [MLS-0091980]
- activity against TNAP in vitro ([3]; luminescence-based assay): elimination of activity
- IC50 [3, 18]: > 100000 nM
- activity against IAP [1]: elimination of activity
- IC50 [1, 19]: > 100000 nM

Compound: O=C1C2CCCCC2C(=O)N1c1nc(Cc2ccccc2)n[nH]1 (centres unmarked) [MLS-0091981]
- IC50 [3, 18]: 1570 nM
- IC50 [1, 19]: 1100 nM

Compound: O=C1C2C3C=CC(C3)C2C(=O)N1c1n[nH]c(CCc2ccccc2)n1 (centres unmarked) [MLS-0091982]
- IC50 [3, 18]: 30600 nM

Compound: O=C1C2CCCCC2C(=O)N1c1nc(CCc2ccccc2)n[nH]1 (centres unmarked) [MLS-0091984]
- IC50 [3, 18]: > 100000 nM

Compound: O=C1C2CC=CCC2C(=O)N1c1nnc(CCc2ccccc2)[nH]1 (centres unmarked) [MLS-0091987]
- IC50 [3, 18]: 27900 nM
- selectivity for IAP over TNAP [1]: 40 fold
- IC50 [1, 19]: 720 nM

Compound: COC(=O)c1cc(-c2ccc(Cl)cc2Cl)n[nH]1 [MLS-0091995]
- improvement in TNAP potency over parent compound [3]: 2 fold
- IC50 [3, 10]: 500 nM

Compound: O=C(c1[nH]nc2c1COc1ccccc1-2)N1CCCC1 [MLS-0111547]
- improvement in TNAP potency over parent compound [3]: 3 fold
- IC50 [3, 9]: 500 nM
- IC50 [3, 10]: 480 nM

Compound: COc1ccc(OC)c(S(=O)(=O)Nc2ccc3ncccc3c2)c1 [MLS-0111639]
- activity against TNAP in vitro ([3]; luminescence-based assay): eliminates activity

Compound: COc1ccc(OC)c(C(=O)Nc2cnc3ccccc3c2)c1 [MLS-0111666]
- activity against TNAP in vitro ([3]; luminescence-based assay): inactive

Compound: COc1ccc(OC)c(CNc2cnc3ccccc3c2)c1 [MLS-0111667]
- activity against TNAP in vitro ([3]; luminescence-based assay): inactive

Compound: NNC(=O)c1cc(-c2ccc(Cl)cc2Cl)n[nH]1 [MLS-0146145]
- IC50 [3, 21]: 52 nM

Compound: CN(C)C(=O)c1cc(-c2ccc(Cl)cc2Cl)n[nH]1 [MLS-0146148]
- IC50 [3, 21]: 75 nM

Compound: CC(C)NC(=O)c1cc(-c2ccc(Cl)cc2Cl)n[nH]1 [MLS-0146149]
- IC50 [3, 21]: 24 nM

Compound: O=C(NCCO)c1cc(-c2ccc(Cl)cc2Cl)n[nH]1 [MLS-0146161]
- IC50 [3, 21]: 20 nM

Compound: O=C(NCCO)c1cc(-c2cc(F)c(Cl)cc2Cl)n[nH]1 [MLS-0146165]
- IC50 [3, 21]: 42 nM

Compound: Cc1cc(C)nc(SCC(=O)c2ccc(O)c(O)c2)n1 [MLS-0315687]
- IC50 ([3]; catechol series, read-out: TNAP IC50): 8600 nM
- IC50 [1, 7]: 49500 nM

Compound: CCc1nccn1CC(=O)c1ccc(O)c(O)c1 [MLS-0315848]
- selectivity as inhibitor of PLAP over IAP ([2]; catechol series): over 27 fold
- selectivity as inhibitor of PLAP over TNAP ([2]; catechol series): over 27 fold
- IC50 [2, 8]: 4.2 µM

Compound: Cc1nc2ccccc2n1CC(=O)c1ccc(O)c(O)c1 [MLS-0315854]
- selectivity as inhibitor of PLAP over IAP ([2]; catechol series): 10 fold
- selectivity as inhibitor of PLAP over TNAP ([2]; catechol series): 40 fold

Compound: Cc1cnn(CC(=O)c2ccc(O)c(O)c2)c1 [MLS-0390945]
- selectivity as inhibitor of PLAP over IAP ([2]; catechol series): > 25 fold
- selectivity as inhibitor of PLAP over TNAP ([2]; catechol series): more than 50 fold
